Measurements from publication PMC6407913, “DREADD Agonist 21 Is an Effective Agonist for Muscarinic-Based DREADDs in Vitro and in Vivo” (ACS Pharmacology & Translational Science, 2018).
Values joined by “and” are separate entries in the source; they are usually repeats but may differ in a detail not shown here. Equal values may be shown once.

Tests used:
Type in all cases: cell-based
[1] = target: T1, 318 nonolfactory human GPCRs (Homo sapiens, UniProt P20309); conditions: CHRM3; C21 5 µM
T1 construct: expressed in transfected cells; host or cells: HTLA cells, transient

[2] = target: 318 nonolfactory human GPCRs (Homo sapiens, UniProt P25021); conditions: HRH2; C21 5 µM
[3] = target: T2, 318 nonolfactory human GPCRs (Homo sapiens, UniProt P25101); conditions: EDNRA; C21 5 µM
T2 construct: expressed in transfected cells; host or cells: HTLA cells, transient

[4] = target: T3, 318 nonolfactory human GPCRs (Homo sapiens, UniProt P25106); conditions: CXCR7; C21 5 µM
T3 construct: expressed in transfected cells; host or cells: HTLA cells, transient

[5] = target: T4, 318 nonolfactory human GPCRs (Homo sapiens, UniProt P25116); conditions: F2R; C21 5 µM
T4 construct: expressed in transfected cells; host or cells: HTLA cells, transient

[6] = target: T5, 318 nonolfactory human GPCRs (Homo sapiens, UniProt P30968); conditions: GNRHR; C21 5 µM
T5 construct: expressed in transfected cells; host or cells: HTLA cells, transient

[7] = target: 318 nonolfactory human GPCRs (Homo sapiens, UniProt P32238); conditions: CCKAR; C21 5 µM
[8] = target: T6, 318 nonolfactory human GPCRs (Homo sapiens, UniProt P32302); conditions: CXCR5; C21 5 µM
T6 construct: expressed in transfected cells; host or cells: HTLA cells, transient

[9] = target: T7, 318 nonolfactory human GPCRs (Homo sapiens, UniProt P34969); conditions: HTR7; C21 5 µM
T7 construct: expressed in transfected cells; host or cells: HTLA cells, transient

[10] = target: T8, 318 nonolfactory human GPCRs (Homo sapiens, UniProt P35410); conditions: MAS1L; C21 5 µM
T8 construct: expressed in transfected cells; host or cells: HTLA cells, transient

[11] = target: 318 nonolfactory human GPCRs (Homo sapiens, UniProt P43220); conditions: GLP1R; C21 5 µM
[12] = target: T9, 318 nonolfactory human GPCRs (Homo sapiens, UniProt P46663); conditions: BDKBR1; C21 5 µM
T9 construct: expressed in transfected cells; host or cells: HTLA cells, transient

[13] = target: T10, 318 nonolfactory human GPCRs (Homo sapiens, UniProt P47775); conditions: GPR12; C21 5 µM
T10 construct: expressed in transfected cells; host or cells: HTLA cells, transient

[14] = target: T11, 318 nonolfactory human GPCRs (Homo sapiens, UniProt P48146); conditions: NPBW2; C21 5 µM
T11 construct: expressed in transfected cells; host or cells: HTLA cells, transient

[15] = target: T12, 318 nonolfactory human GPCRs (Homo sapiens, UniProt P50391); conditions: NPY4R; C21 5 µM
T12 construct: expressed in transfected cells; host or cells: HTLA cells, transient

[16] = target: T13, 318 nonolfactory human GPCRs (Homo sapiens, UniProt P51582); conditions: P2RY4; C21 5 µM
T13 construct: expressed in transfected cells; host or cells: HTLA cells, transient

[17] = target: T14, 318 nonolfactory human GPCRs (Homo sapiens, UniProt Q13324); conditions: CRHR2; C21 5 µM
T14 construct: expressed in transfected cells; host or cells: HTLA cells, transient

[18] = target: T15, 318 nonolfactory human GPCRs (Homo sapiens, UniProt Q15760); conditions: GPR19; C21 5 µM
T15 construct: expressed in transfected cells; host or cells: HTLA cells, transient

[19] = target: T16, 318 nonolfactory human GPCRs (Homo sapiens, UniProt Q8NFJ6); conditions: PK2; C21 5 µM
T16 construct: expressed in transfected cells; host or cells: HTLA cells, transient

[20] = target: T17, 318 nonolfactory human GPCRs (Homo sapiens, UniProt Q8WXD0); conditions: RXFP2; C21 5 µM
T17 construct: expressed in transfected cells; host or cells: HTLA cells, transient

[21] = target: T18, 318 nonolfactory human GPCRs (Homo sapiens, UniProt Q92633); conditions: LPAR1; C21 5 µM
T18 construct: expressed in transfected cells; host or cells: HTLA cells, transient

[22] = target: T19, 318 nonolfactory human GPCRs (Homo sapiens, UniProt Q969N4); conditions: TAAR8; C21 5 µM
T19 construct: expressed in transfected cells; host or cells: HTLA cells, transient

[23] = target: T20, 318 nonolfactory human GPCRs (Homo sapiens, UniProt Q96AM1); conditions: MRGPRF; C21 5 µM
T20 construct: expressed in transfected cells; host or cells: HTLA cells, transient

[24] = target: T21, 318 nonolfactory human GPCRs (Homo sapiens, UniProt Q96LB2); conditions: MRGPRX1; C21 5 µM
T21 construct: expressed in transfected cells; host or cells: HTLA cells, transient

[25] = target: T22, 318 nonolfactory human GPCRs (Homo sapiens, UniProt Q96P68); conditions: OXGR1; C21 5 µM
T22 construct: expressed in transfected cells; host or cells: HTLA cells, transient

[26] = target: 318 nonolfactory human GPCRs (Homo sapiens, UniProt Q96PE1); conditions: GPR124; C21 5 µM
[27] = target: T23, 318 nonolfactory human GPCRs (Homo sapiens, UniProt Q99677); conditions: LPA4; C21 5 µM
T23 construct: expressed in transfected cells; host or cells: HTLA cells, transient

[28] = target: T24, 318 nonolfactory human GPCRs (Homo sapiens, UniProt Q9BPV8); conditions: P2RY13; C21 5 µM
T24 construct: expressed in transfected cells; host or cells: HTLA cells, transient

[29] = target: T25, 318 nonolfactory human GPCRs (Homo sapiens, UniProt Q9BXC0); conditions: HCA1; C21 5 µM
T25 construct: expressed in transfected cells; host or cells: HTLA cells, transient

[30] = target: T26, 318 nonolfactory human GPCRs (Homo sapiens, UniProt Q9GZQ6); conditions: NPFF1; C21 5 µM
T26 construct: expressed in transfected cells; host or cells: HTLA cells, transient

[31] = target: T27, 318 nonolfactory human GPCRs (Homo sapiens, UniProt Q9HBX9); conditions: RXFP1; C21 5 µM
T27 construct: expressed in transfected cells; host or cells: HTLA cells, transient

[32] = target: T28, 318 nonolfactory human GPCRs (Homo sapiens, UniProt Q9P1P5); conditions: TAAR2; C21 5 µM
T28 construct: expressed in transfected cells; host or cells: HTLA cells, transient

[33] = target: T29, 318 nonolfactory human GPCRs (Homo sapiens, UniProt Q9Y2T6); conditions: GPR55; C21 5 µM
T29 construct: expressed in transfected cells; host or cells: HTLA cells, transient

[34] = target: T30, 318 nonolfactory human GPCRs (Homo sapiens, UniProt Q9Y5Y4); conditions: GPR44; C21 5 µM
T30 construct: expressed in transfected cells; host or cells: HTLA cells, transient
T30 sequence (Q9Y5Y4 whole entry): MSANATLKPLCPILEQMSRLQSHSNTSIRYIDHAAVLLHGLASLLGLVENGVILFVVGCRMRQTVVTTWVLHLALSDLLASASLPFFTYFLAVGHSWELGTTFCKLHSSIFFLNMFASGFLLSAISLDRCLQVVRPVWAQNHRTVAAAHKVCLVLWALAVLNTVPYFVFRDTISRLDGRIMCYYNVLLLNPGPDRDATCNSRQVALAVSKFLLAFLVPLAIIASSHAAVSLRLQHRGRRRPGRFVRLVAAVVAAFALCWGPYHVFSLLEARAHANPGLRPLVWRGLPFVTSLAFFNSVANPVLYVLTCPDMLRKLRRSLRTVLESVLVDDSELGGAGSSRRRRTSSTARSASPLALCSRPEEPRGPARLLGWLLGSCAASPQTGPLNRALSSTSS

T16 sequence (Q8NFJ6 whole entry): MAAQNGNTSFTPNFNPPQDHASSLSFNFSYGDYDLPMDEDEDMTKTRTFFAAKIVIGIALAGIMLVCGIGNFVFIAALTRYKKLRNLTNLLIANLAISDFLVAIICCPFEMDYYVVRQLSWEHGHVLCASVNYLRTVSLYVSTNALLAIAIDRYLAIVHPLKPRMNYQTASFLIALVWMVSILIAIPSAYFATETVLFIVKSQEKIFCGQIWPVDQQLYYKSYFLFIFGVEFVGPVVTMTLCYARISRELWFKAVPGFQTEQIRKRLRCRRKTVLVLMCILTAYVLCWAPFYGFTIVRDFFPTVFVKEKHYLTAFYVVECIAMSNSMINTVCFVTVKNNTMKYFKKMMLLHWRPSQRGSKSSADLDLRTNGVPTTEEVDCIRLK
T29 sequence (Q9Y2T6 whole entry): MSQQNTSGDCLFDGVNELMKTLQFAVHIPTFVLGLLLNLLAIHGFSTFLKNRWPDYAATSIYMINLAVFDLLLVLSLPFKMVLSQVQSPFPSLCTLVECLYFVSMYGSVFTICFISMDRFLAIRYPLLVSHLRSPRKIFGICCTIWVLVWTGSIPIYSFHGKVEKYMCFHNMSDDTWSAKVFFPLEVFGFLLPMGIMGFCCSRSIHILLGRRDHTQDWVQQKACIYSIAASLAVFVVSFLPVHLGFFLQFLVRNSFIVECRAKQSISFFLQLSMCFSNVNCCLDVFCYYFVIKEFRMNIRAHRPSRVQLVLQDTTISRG
T3 sequence (P25106 whole entry): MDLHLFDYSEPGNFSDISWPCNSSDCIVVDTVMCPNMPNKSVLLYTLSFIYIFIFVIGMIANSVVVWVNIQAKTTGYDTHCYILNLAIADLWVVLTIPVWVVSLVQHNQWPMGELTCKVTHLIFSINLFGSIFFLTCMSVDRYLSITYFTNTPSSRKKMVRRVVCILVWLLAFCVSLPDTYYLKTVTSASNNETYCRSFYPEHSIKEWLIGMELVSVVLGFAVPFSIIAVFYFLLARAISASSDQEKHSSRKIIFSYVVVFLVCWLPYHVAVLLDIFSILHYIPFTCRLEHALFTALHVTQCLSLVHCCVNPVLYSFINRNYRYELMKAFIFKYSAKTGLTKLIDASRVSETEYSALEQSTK
T24 sequence (Q9BPV8 whole entry): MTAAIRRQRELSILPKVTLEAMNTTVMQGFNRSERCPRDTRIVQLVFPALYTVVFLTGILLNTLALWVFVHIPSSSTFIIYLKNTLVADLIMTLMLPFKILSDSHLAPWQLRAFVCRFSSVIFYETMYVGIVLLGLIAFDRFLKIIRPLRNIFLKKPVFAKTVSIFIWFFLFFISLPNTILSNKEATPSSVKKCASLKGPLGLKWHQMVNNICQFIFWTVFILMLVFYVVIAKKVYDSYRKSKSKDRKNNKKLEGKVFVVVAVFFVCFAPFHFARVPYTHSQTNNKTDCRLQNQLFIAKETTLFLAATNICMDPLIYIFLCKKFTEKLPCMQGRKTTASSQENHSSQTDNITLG
T23 sequence (Q99677 whole entry): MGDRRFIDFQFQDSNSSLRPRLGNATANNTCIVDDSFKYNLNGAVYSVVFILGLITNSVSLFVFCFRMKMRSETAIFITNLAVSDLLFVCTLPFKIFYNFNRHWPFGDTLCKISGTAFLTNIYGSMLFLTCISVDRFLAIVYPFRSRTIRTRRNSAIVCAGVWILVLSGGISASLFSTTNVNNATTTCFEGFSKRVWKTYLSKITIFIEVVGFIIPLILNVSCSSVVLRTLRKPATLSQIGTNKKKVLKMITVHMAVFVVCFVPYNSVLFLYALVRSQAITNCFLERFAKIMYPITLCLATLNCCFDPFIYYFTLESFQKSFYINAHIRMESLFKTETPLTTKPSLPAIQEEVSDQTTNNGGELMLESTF
T12 sequence (P50391 whole entry): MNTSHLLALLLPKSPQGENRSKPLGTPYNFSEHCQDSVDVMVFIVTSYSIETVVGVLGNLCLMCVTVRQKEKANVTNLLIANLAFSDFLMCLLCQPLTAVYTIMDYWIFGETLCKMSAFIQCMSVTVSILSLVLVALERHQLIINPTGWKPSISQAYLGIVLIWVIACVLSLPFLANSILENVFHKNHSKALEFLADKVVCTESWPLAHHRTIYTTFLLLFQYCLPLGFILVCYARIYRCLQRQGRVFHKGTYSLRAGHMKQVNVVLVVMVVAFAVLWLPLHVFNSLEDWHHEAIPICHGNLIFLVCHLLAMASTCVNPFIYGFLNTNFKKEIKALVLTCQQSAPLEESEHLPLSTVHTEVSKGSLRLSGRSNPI
T5 sequence (P30968 whole entry): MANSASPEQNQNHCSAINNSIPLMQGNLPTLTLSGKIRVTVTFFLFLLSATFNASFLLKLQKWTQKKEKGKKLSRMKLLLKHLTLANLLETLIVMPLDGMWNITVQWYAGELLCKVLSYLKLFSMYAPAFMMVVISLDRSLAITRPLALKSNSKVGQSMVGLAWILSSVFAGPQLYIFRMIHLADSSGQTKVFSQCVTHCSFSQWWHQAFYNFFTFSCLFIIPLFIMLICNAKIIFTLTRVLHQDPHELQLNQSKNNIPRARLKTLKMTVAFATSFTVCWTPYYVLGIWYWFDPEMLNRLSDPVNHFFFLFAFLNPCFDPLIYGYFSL
T10 sequence (P47775 whole entry): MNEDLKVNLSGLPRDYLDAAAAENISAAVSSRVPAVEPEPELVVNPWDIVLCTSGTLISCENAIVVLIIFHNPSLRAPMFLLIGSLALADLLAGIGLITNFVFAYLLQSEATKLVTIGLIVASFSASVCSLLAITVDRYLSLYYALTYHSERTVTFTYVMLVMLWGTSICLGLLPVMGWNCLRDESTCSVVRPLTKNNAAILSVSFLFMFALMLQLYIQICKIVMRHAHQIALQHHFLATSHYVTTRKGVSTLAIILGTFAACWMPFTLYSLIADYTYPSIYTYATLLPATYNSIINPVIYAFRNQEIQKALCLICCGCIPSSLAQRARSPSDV
T6 sequence (P32302 whole entry): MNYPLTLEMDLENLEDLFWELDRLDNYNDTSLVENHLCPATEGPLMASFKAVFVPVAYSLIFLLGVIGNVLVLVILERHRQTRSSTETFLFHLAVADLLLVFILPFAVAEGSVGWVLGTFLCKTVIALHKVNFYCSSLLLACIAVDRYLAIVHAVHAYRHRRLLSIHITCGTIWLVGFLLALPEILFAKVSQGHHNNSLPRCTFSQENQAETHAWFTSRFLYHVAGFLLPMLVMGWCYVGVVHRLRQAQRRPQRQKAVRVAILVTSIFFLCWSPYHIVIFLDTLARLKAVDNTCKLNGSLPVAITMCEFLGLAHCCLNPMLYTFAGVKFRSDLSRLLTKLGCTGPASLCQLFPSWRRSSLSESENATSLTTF
T7 sequence (P34969 whole entry): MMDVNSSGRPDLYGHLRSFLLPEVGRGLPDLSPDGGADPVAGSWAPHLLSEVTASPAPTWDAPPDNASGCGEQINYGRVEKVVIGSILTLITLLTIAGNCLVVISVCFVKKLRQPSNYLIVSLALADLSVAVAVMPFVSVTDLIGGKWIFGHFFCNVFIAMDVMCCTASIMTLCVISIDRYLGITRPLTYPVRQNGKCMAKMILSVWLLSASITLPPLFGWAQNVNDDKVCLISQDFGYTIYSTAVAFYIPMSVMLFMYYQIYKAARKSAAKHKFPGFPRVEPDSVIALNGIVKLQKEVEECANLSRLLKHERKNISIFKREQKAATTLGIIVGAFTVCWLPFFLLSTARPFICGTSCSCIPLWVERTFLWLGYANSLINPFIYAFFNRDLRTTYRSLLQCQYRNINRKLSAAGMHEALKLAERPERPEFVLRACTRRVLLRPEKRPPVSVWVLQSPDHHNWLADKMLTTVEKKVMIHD
T2 sequence (P25101 21-427): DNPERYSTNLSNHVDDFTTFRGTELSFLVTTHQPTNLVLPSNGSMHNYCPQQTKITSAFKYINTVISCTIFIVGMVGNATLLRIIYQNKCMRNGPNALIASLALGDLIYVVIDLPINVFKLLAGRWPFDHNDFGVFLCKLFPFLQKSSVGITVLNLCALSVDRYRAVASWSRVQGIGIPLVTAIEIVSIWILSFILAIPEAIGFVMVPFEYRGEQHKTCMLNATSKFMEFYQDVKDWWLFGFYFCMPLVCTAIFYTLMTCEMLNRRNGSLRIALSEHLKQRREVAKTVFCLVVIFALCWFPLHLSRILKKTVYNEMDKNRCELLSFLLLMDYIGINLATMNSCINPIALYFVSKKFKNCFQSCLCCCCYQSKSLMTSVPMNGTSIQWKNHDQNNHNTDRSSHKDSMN
T4 sequence (P25116 22-425): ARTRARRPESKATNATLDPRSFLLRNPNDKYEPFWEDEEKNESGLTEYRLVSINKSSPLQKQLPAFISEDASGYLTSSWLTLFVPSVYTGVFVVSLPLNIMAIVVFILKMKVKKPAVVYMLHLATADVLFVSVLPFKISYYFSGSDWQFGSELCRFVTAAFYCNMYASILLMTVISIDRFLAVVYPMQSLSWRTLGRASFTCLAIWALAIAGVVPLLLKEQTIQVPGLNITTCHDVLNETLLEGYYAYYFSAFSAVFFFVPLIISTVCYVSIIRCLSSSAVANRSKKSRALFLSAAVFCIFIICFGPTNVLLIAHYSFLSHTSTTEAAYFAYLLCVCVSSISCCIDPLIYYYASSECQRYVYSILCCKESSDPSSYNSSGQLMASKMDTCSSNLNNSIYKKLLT

## c1ccc2c(c1)N=C(N1CCNCC1)c1ccccc1N2 [C21, 11-(1-piperazinyl)-5H-dibenzo[b,e][1,4]diazepine]
[1]
  FOLD OVER BASAL: 3.1 fold and 3.7 fold and 2.6 fold and 3.4 fold
[2]
  FOLD OVER BASAL: 1.7 fold and 1.4 fold and 1.6 fold and 1.3 fold
[3]
  FOLD OVER BASAL: 0.8 fold and 1.4 fold and 0.9 fold
[4]
  FOLD OVER BASAL: 0.7 fold and 0.8 fold and 1.1 fold and 1.3 fold
[5]
  FOLD OVER BASAL: 0.8 fold and 0.9 fold and 0.6 fold
[6]
  FOLD OVER BASAL: 0.6 fold and 1.2 fold and 0.9 fold and 0.7 fold
[7]
  FOLD OVER BASAL: 1.2 fold and 0.8 fold and 0.7 fold
[8]
  FOLD OVER BASAL: 0.9 fold and 1.3 fold and 1.2 fold
[9]
  FOLD OVER BASAL: 0.9 fold and 0.8 fold and 1 fold
[10]
  FOLD OVER BASAL: 0.6 fold and 1 fold
[11]
  FOLD OVER BASAL: 0.6 fold and 0.8 fold and 0.7 fold and 0.5 fold
[12]
  FOLD OVER BASAL: 0.6 fold and 0.3 fold
[13]
  FOLD OVER BASAL: 0.5 fold and 0.7 fold and 0.6 fold
[14]
  FOLD OVER BASAL: 1.1 fold and 1.3 fold and 1.4 fold
[15]
  FOLD OVER BASAL: 0.5 fold and 0.6 fold and 0.7 fold
[16]
  FOLD OVER BASAL: 1 fold and 0.9 fold
[17]
  FOLD OVER BASAL: 1.3 fold and 1 fold and 0.9 fold
[18]
  FOLD OVER BASAL: 0.8 fold and 0.9 fold and 1.1 fold
[19]
  FOLD OVER BASAL: 0.9 fold and 1 fold and 1.1 fold and 1.3 fold
[20]
  FOLD OVER BASAL: 1.1 fold and 0.9 fold
[21]
  FOLD OVER BASAL: 1 fold and 0.8 fold
[22]
  FOLD OVER BASAL: 0.5 fold and 0.8 fold
[23]
  FOLD OVER BASAL: 1.4 fold and 1.3 fold and 1 fold and 0.7 fold
[24]
  FOLD OVER BASAL: 0.6 fold and 1.2 fold
[25]
  FOLD OVER BASAL: 0.7 fold and 0.6 fold and 1.2 fold
[26]
  FOLD OVER BASAL: 1 fold and 0.7 fold
[27]
  FOLD OVER BASAL: 1.2 fold and 1.1 fold and 0.8 fold
[28]
  FOLD OVER BASAL: 0.8 fold and 1 fold and 1.2 fold
[29]
  FOLD OVER BASAL: 1.8 fold and 1.3 fold and 1.7 fold and 0.9 fold
[30]
  FOLD OVER BASAL: 1.5 fold and 1.1 fold and 1.2 fold
[31]
  FOLD OVER BASAL: 0.4 fold and 0.6 fold
[32]
  FOLD OVER BASAL: 1.1 fold and 1 fold and 0.7 fold and 0.9 fold
[33]
  FOLD OVER BASAL: 0.7 fold and 1 fold and 0.8 fold
[34]
  FOLD OVER BASAL: 1.3 fold and 2.1 fold and 1.5 fold and 1.4 fold
